Assay results published in patent US20150119410A1, “BIOMARKERS OF RESPONSE TO NAE INHIBITORS” (MILLENNIUM PHARMACEUTICALS, INC., priority 2011, published 2015).

What was measured:
Experiment in all cases: Cell line panel 1 viability screen
Type in all cases: cell-based
COLO-678 = COLO-678 (large_intestine)
Method: (§1) To support clinical development and identify potential biomarkers of tumor sensitivity or resistance, two large cancer cell line panels (Panel 1, N=653 (McDermott et al. (2007) PNAS 104:19936-19941); Panel 2, N=240 (O'Day et al. (2010) Fourth AACR International Conference on Molecular Diagnostics in Cancer Therapeutic Development)) were treated with MLN4924 and cell viability data (IC50, EC50, and POC—Percentage of Control) were generated.
(§2) Panel 1 (McDermott et al., supra). The cell lines were exposed to three MLN4924 concentrations (20 nM, 200 nM, and 2 μM) for 72 hours. Viability, i.e., cell number, was quantified by measuring fluorescence of a cell-permeant nucleic acid stain. Mean of triplicate values for each sample were taken and compared to DMSO control to calculate percentage of control. In the results, control or no activity value is given a value of about 1, sensitivity is indicated by a value less than 1, with 0 as death of the entire cell population and resistance indicated by a value greater than 1. A continuum of viability values was obtained for each concentration, so some values were selected as cut-offs for final determination of sensitivity or resistance. For example, median POC values of less than the median value of all POC's recorded in the panel (<0.34) indicated sensitivity, values of 0.34 to 0.75 indicated borderline sensitivity, values greater than the 3rd quartile of all POC's in the panel (>0.75) insensitivity or resistance. […] Final judgment of cell line as sensitive, insensitive or resistant was determined by its viability at 2 μM.

NCI-N87 = NCI-N87 (stomach)
Method: as §1, §2

COLO-205 = tested on: COLO-205
Method: as §1, §2

HT29 = tested on: HT29
Method: as §1, §2

C-33a = C-33a (Cervix)
Method: as §1, §2

ACHN = ACHN (kidney)
Method: as §1, §2

NCI-H2405 = NCI-H2405 (lung)
Method: as §1, §2

COCM1 = tested on: COCM1
Method: as §1, §2

RCM-1 = tested on: RCM-1
Method: as §1, §2

SK-MEL-30 = conditions: Homo sapiens; SK-MEL-30 (skin); 2 μM MLN4924, 72 hours; DMSO control about 1
Method: as §1, §2

NCl-H1581 = NCl-H1581 (lung NSCLC); 2 μM MLN4924, 72 hours; DMSO control about 1
Method: as §1, §2

SW626 = conditions: Homo sapiens; SW626 (ovary); 2 μM MLN4924, 72 hours; DMSO control about 1
Method: as §1, §2

AsPC-1 = AsPC-1 (Pancreas)
Method: as §1, §2

SW1573 = SW1573 (lung)
Method: as §1, §2

MKN28 = conditions: Homo sapiens, MKN-28; MKN28 (stomach); 2 μM MLN4924, 72 hours; DMSO control about 1
Method: as §1, §2

8505C = 8505C (thyroid)
Method: as §1, §2

PANC-03-27 = PANC-03-27 (pancreas)
Method: as §1, §2

LS-174T = LS-174T (large_intestine)
Method: as §1, §2

KYSE-150 = KYSE-150 (oesophagus)
Method: as §1, §2

NUGC-3 = NUGC-3 (stomach)
Method: as §1, §2

NCl-H630 = NCl-H630 (intestine); 2 μM MLN4924, 72 hours; DMSO control about 1
Method: as §1, §2

HuCCT1 = HuCCT1 (Liver)
Method: as §1, §2

[1] = Homo sapiens, 2 μM MLN4924, 72 hours, DMSO control about 1

## NS(=O)(=O)OC[C@@H]1C[C@@H](n2ccc3c(N[C@H]4CCc5ccccc54)ncnc32)C[C@@H]1O [MLN4924, ((1S,2S,4R)-4-{4-[(1S)-2,3-dihydro-1H-inden-1-ylamino]-7H-pyrrolo[2,3-d]pyrimidin-7-yl}-2-hydroxycyclopentyl)methyl sulphamate]
COLO-678; SMAD4 mutant
  Phenotype: resistant (values greater than the 3rd quartile of all POC's in the panel (>0.75) insensitivity or resistance)
COLO-678; [1]
  viability at 2 µM: 81.4%
NCI-N87; [1]
  viability at 2 µM: 14.6%
NCI-N87; SMAD4 mutant
  Phenotype: sensitive (median POC values of less than the median value of all POC's recorded in the panel (<0.34) indicated sensitivity)
COLO-205; COLO-205 (large_intestine), SMAD4 mutant
  Phenotype: sensitive (median POC values of less than the median value of all POC's recorded in the panel (<0.34) indicated sensitivity)
COLO-205; Homo sapiens, COLO-205 (intestine), 2 μM MLN4924, 72 hours, DMSO control about 1
  viability at 2 µM: 14.4%
HT29; HT-29 (large_intestine), SMAD4 mutant
  Phenotype: insensitive (values of 0.34 to 0.75 indicated borderline sensitivity)
HT29; Homo sapiens, HT29 / HT-29 (intestine), 2 μM MLN4924, 72 hours, DMSO control about 1
  viability at 2 µM: 43.8%
C-33a; FBXW7 mutant
  Phenotype: sensitive (median POC values of less than the median value of all POC's recorded in the panel (<0.34) indicated sensitivity)
C-33a; [1]
  viability at 2 µM: 8.22%
ACHN; NF2 mutant
  Phenotype: sensitive (median POC values of less than the median value of all POC's recorded in the panel (<0.34) indicated sensitivity)
ACHN; [1]
  viability at 2 µM: 6.21%
NCI-H2405; [1]
  viability at 2 µM: 25.5%
NCI-H2405; SMAD4 mutant
  Phenotype: sensitive (median POC values of less than the median value of all POC's recorded in the panel (<0.34) indicated sensitivity)
COCM1; COCM1 / CoCM-1 (intestine), 2 μM MLN4924, 72 hours, DMSO control about 1
  viability at 2 µM: 114%
COCM1; CoCM-1 (large_intestine), SMAD4 mutant
  Phenotype: resistant (values greater than the 3rd quartile of all POC's in the panel (>0.75) insensitivity or resistance)
RCM-1; Homo sapiens, RCM-1 (intestine), 2 μM MLN4924, 72 hours, DMSO control about 1
  viability at 2 µM: 76.7%
RCM-1; RCM-1 (Intestine), FBXW7 mutant
  Phenotype: resistant (values greater than the 3rd quartile of all POC's in the panel (>0.75) insensitivity or resistance)
SK-MEL-30
  viability at 2 µM: 77.3%
NCl-H1581
  viability at 2 µM: 73.7%
SW626
  viability at 2 µM: 55.4%
AsPC-1; FBXW7 mutant
  Phenotype: resistant (values greater than the 3rd quartile of all POC's in the panel (>0.75) insensitivity or resistance)
AsPC-1; Homo sapiens, ASPC1, 2 μM MLN4924, 72 hours, DMSO control about 1
  viability at 2 µM: 98.9%
SW1573; [1]
  viability at 2 µM: 11.1%
SW1573; NF2 and SMAD4 mutant
  Phenotype: sensitive (median POC values of less than the median value of all POC's recorded in the panel (<0.34) indicated sensitivity)
MKN28
  viability at 2 µM: 28.5%
8505C; NF2 mutant
  Phenotype: sensitive (median POC values of less than the median value of all POC's recorded in the panel (<0.34) indicated sensitivity)
8505C; [1]
  viability at 2 µM: 14.1%
PANC-03-27; [1]
  viability at 2 µM: 7.24%
PANC-03-27; SMAD4 mutant
  Phenotype: sensitive (median POC values of less than the median value of all POC's recorded in the panel (<0.34) indicated sensitivity)
LS-174T; Homo sapiens, LS174T, 2 μM MLN4924, 72 hours, DMSO control about 1
  viability at 2 µM: 32.6%
LS-174T; KDM6A mutant
  Phenotype: sensitive (median POC values of less than the median value of all POC's recorded in the panel (<0.34) indicated sensitivity)
KYSE-150; [1]
  viability at 2 µM: 12.8%
KYSE-150; SMAD4 mutant
  Phenotype: sensitive (median POC values of less than the median value of all POC's recorded in the panel (<0.34) indicated sensitivity)
NUGC-3; [1]
  viability at 2 µM: 9.8%
NUGC-3; NF2 mutant
  Phenotype: sensitive (median POC values of less than the median value of all POC's recorded in the panel (<0.34) indicated sensitivity)
NCl-H630
  viability at 2 µM: 75%
HuCCT1; Homo sapiens, HuCCT-1, 2 μM MLN4924, 72 hours, DMSO control about 1
  viability at 2 µM: 12.6%
HuCCT1; FBXW7 mutant
  Phenotype: sensitive (median POC values of less than the median value of all POC's recorded in the panel (<0.34) indicated sensitivity)
